Reference: ChEMBL document CHEMBL1126482, “Novel Y2-selective, reduced-size agonists of neuropeptide Y” (Bioorg Med Chem Lett, 1993)
Square brackets hold non-standard residues; d marks the D form. Peptide text beside a SMILES is read from it. Cha = N[C@@H](CC1CCCCC1)C(=O)O

How the values were obtained:
[1] = species: Rattus norvegicus; assay: Compound was evaluated for its ability to inhibit electrically evoked rat vas deferens contractions; format: functional
[2] = target: T1, Neuropeptide Y receptor type 1 (Homo sapiens, UniProt P25929); assay: Compound was evaluated for its inhibitory activity against human neuropeptide Y1 receptor expressing SK-N-MC cells; format: cell-based
T1 sequence (P25929 whole entry): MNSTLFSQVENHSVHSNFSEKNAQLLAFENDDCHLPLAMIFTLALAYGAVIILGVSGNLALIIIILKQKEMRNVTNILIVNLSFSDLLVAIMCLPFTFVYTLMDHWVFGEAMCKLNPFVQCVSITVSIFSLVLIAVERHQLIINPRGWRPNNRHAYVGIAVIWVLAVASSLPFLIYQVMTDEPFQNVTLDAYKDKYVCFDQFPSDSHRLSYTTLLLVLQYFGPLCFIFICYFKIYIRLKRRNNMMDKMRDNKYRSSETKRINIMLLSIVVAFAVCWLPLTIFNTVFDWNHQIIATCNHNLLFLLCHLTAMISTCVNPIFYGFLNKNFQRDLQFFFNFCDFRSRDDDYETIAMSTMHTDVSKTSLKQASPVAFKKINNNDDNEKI

[3] = target: T2, Neuropeptide Y receptor type 2 (Homo sapiens, UniProt P49146); assay: Compound was evaluated for its inhibitory activity against human neuropeptide Y2 receptor expressing LN319 cells; format: cell-based
T2 sequence (P49146 whole entry): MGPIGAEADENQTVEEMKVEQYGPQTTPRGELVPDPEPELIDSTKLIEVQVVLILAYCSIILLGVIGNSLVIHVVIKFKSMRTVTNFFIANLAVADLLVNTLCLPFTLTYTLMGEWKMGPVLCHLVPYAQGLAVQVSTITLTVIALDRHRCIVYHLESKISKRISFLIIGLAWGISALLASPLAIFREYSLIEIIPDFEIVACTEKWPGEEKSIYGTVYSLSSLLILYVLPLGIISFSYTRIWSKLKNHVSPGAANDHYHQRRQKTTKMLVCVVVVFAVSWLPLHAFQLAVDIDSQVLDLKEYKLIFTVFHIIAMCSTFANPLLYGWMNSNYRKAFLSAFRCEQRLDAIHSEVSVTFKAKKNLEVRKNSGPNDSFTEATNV

## Ac-RHYINLITRQRY-OH
[1]
  IC50: 4500 nM
[2]
  IC50: 35000 nM

## CC[C@H](C)[C@H](NC(=O)[C@H](Cc1ccc(O)cc1)NC(=O)[C@H](Cc1c[nH]cn1)NC(=O)[C@H](CCCN=C(N)N)NC(C)=O)C(=O)N[C@@H](CC(N)=O)C(=O)N[C@@H](CC1CCCCC1)C(=O)N[C@@H](CC1CCCCC1)C(=O)N[C@H](C(=O)N[C@@H](CCCN=C(N)N)C(=O)N[C@@H](CCC(N)=O)C(=O)N[C@@H](CCCN=C(N)N)C(=O)N[C@@H](Cc1ccc(O)cc1)C(=O)O)[C@@H](C)O (Ac-RHYIN[Cha][Cha]TRQRY-OH)
[2]; sk-n-mc
  IC50: 26000 nM
[3]
  IC50: 3 nM

## CC[C@H](C)[C@H](NC(=O)[C@H](Cc1ccc(O)cc1)NC(=O)[C@H](Cc1c[nH]cn1)NC(=O)[C@H](CCCN=C(N)N)NC(C)=O)C(=O)N[C@@H](CC(N)=O)C(=O)N[C@@H](CC(C)C)C(=O)N[C@@H](CC1CCCCC1)C(=O)N[C@H](C(=O)N[C@@H](CCCN=C(N)N)C(=O)N[C@@H](CCC(N)=O)C(=O)N[C@@H](CCCN=C(N)N)C(=O)N[C@@H](Cc1ccc(O)cc1)C(=O)O)[C@@H](C)O (Ac-RHYINL[Cha]TRQRY-OH)
[2]; sk-n-mc
  IC50: 39 nM
[3]
  IC50: 5 nM

## CC[C@H](C)[C@H](NC(=O)[C@H](Cc1ccc(O)cc1)NC(=O)[C@H](Cc1c[nH]cn1)NC(=O)[C@H](CCCN=C(N)N)NC(C)=O)C(=O)N[C@@H](CC(N)=O)C(=O)N[C@@H](CC1CCCCC1)C(=O)N[C@H](C(=O)N[C@H](C(=O)N[C@@H](CCCN=C(N)N)C(=O)N[C@@H](CCC(N)=O)C(=O)N[C@@H](CCCN=C(N)N)C(=O)N[C@@H](Cc1ccc(O)cc1)C(=O)O)[C@@H](C)O)[C@@H](C)CC (Ac-RHYIN[Cha]ITRQRY-OH)
[2]; sk-n-mc
  IC50: 44000 nM
[3]
  IC50: 8 nM
